Experimental data taken from patent publication US11167006B2 (Shanghai Tianci Life Science Development Co., Ltd., priority 2016, dated 2021).
Square brackets hold non-standard residues; d marks the D form. Peptide text beside a SMILES is read from it. NMeF = CN[C@@H](Cc1ccccc1)C(=O)O

How the values were obtained:
[1] = tested on: movement coordination of mice; test: Movement coordination, RotaRod; format: in vivo, mouse; settings: subcutaneous 10 mg/kg
Protocol: The movement coordination of the mice was detected by a ZB-200 RotaRod System. The mice were first trained for two days at a rotational speed of 16 r/min and continuously trained three times a day. The maximum movement time for each training was set to 300 s, and mice with movement time less than 180 s were excluded after the training. On day 3 of the experiment, mice were tested for movement coordination at 10, 20, 30 and 40 min after subcutaneous administration of compound 9.
The experimental data were expressed as mean±standard error (Means±S.E.M.), and the differences between drug treatment groups were analyzed by one-way ANOVA (Dunnett test in one-way ANOVA) for data statistics and analysis.

[2] = tested on: movement activity of mice; test: Movement activity, open field experiment; format: in vivo, mouse; settings: subcutaneous 10 mg/kg
Protocol: The movement activity of the mice was tested by open field experiments. The experimental device is consisted of a 50×50×50 cm topless black plexiglass box and a movement monitoring system. The experiment was carried out in a soundproof environment with an indoor temperature being controlled at 22±1° C. After the experiment was started, the mice were first recorded for free movement within 30 minutes, and then compound 9 or morphine was administered subcutaneously, the movement of the mice was detected for another 150 minutes. Before the experiment for each mouse was started, the whole box was wiped with alcohol as a whole to exclude the residual odor of the previous mouse from affecting the accuracy of the data.
The experimental data were expressed as mean±standard error (Means±S.E.M.), and the data for differences between groups treated with different drugs were analyzed by one-way ANOVA (Bonferroni test in one-way ANOVA) for statistics and analysis, ***P<0.001 represents that there was a significant difference between the movement activity of the drug-treated group and that of the saline group.

[3] = tested on: neuralgia induced by chronic compression of the sciatic nerve in mice; test: CCI neuralgia model (thermal and mechanical pain); format: in vivo, mouse
Protocol: The chronic compression model of the sciatic nerve (CCI) was mainly used for the mouse neuralgia. The detection method uses thermal tingling instrument and electronic Von Frey tenderness instrument to simultaneously detect thermal pain and mechanical pain. Firstly, the basic pain threshold of thermal pain and mechanical pain in normal mice were determined respectively. The mice were then anesthetized with sodium pentobarbital (i.p., 80 mg/kg mouse body weight) and the mice were fixed in the prone position. The right sciatic nerve was exposed and 3 mild ligation rings were made around the sciatic nerve using a 4-0 chromic catgut, 1 mm intervals. The ligation intensity is preferably a slight tremor in the right hind leg. On the 10th day after surgery, the thermal pain sensitivity value of the right hind paw of the mouse was measured, and then compound 9 was intrathecally or subcutaneously administered, and the thermal pain threshold at different time points after administration were recorded. On the 11th day after surgery, the mechanical pain sensitivity value of the right hind paw of the mouse was measured, and then Compound 9 was intrathecally or subcutaneously administered, and the mechanical pain threshold at different time points after administration were recorded.
The experimental data were expressed as mean±standard error (Means±S.E.M.), and the data for differences between groups treated with different drug concentrations were analyzed by one-way ANOVA (Bonferroni test in one-way ANOVA) for statistics and analysis, **P<0.01, ***P<0.001 represents that there was a significant difference between the pain threshold value of the drug-treated group and that of the saline group.
First, the maximum analgesic effect (MPE) was calculated, MPE (%)=100×[(pain threshold after administration−pain sensitivity value of the hind paw in surgical side)/(basic pain threshold−pain sensitivity value of the hind paw in surgical side)].

[4] = tested on: acute pain caused by photothermal therapy in male mice of Kunming strain; test: Mouse photothermal tail flick analgesia experiment; format: in vivo
Protocol: After the drug was injected into the lateral ventricle, intrathecal, subcutaneous, and intraperitoneal, the modulating activity on pain was measured by the photothermal tail flick test in mouse.
In the lateral ventricle administration, the lateral ventricle tube-buried surgery of the mouse should be performed in advance to ensure the accuracy of the drug injection site. A brain stereotaxic instrument was used in the lateral ventricle tube-buried surgery of the mouse. Male mice of Kunming strain, weighing 21±2 g; brain stereotaxic instrument is Jiangwan I. After the mice were anesthetized with sodium pentobarbital (i.p., 80 mg/kg mouse body weight), the hair in the head surgery area of the mouse was cut off and the mouse was placed on the brain stereotactic instrument and fixed. The surgery area was disinfected with iodophor, the scalp was opened along the sagittal suture to reveal the skull and the position of the anterior fontanelle can be found. 3 mm backward and 1 mm left/right from the anterior fontanelle, the upper position of the lateral ventricle can be found. A self-made stainless steel tube (a section of 24-gauge, which is connected to a small section of PE-10 tube) is inserted 3 mm downward according to the above position, which is the lateral ventricle. A section of stainless steel string (28-gauge) is inserted into the above-mentioned steel tube to prevent cerebrospinal fluid spillage and foreign matter infection and block the steel pipe. The steel tube is fixed with medical dental powder and glue, and after solidification, the wound is sutured. After the surgery, the mice were recovered tier 4 days, and the follow-up experiment was started on the 5th day. Surgical instruments, stainless steel tubes, etc. involved in the experiment need to be disinfected before the surgery. The mouse lateral ventricle was injected with 4 μl of the drug each time, and then the steel tube was rinsed with 1 μl of physiological saline.
Spinal cord level administration is performed by intrathecal injection in conscious mice, and the specific procedure is described in the method reported by Hylden and Wilcox (Eur. J. Pharmacol. 1980, 67: 313). A 25 μL microinjector was inserted directly into the subarachnoid space between L5 and L6.
The intraperitoneal administration was directly injected using a 1 mL syringe at an injection volume of 10 μl/g body weight. At the time of injection, the mouse was held by left hand with their abdomen facing up and the head was at low position while the tail was at high position. The side of the midline of the abdomen was taken, the needle hole of the syringe was upward, the needle tip penetrates into the skin in a direction less than 20 degrees, the needle tip was slightly pushed in the direction of the mouse head and sticking abdominal wall, and then punctures into the abdominal cavity in the direction of 45 degrees, and was withdrawn to confirm that it has not been pierced into the blood vessel or the intestine, afterwards the drug solution is slowly pushed out.
Subcutaneous injection was also administered directly using a 1 mL syringe in an injection volume of 10 μl/g body weight. At the time of injection, the neck and tail of the mouse were fixed in the left hand, and the head and body were inclined downward at 45 degrees. The needle hole of the syringe is upward, the needle tip is slowly pierced into the skin on the right side of the back center line at an angle of less than 20 degrees, and the needle tip is lightly picked up to confirm that there is no piercing, afterwards the drug solution is slowly pushed out.
Male mice of Kunming strain were used to detect the effects of drugs on pain perception using a photothermal tail flick instrument. The ambient temperature is controlled at 22±1° C., and the experimental animals are free to eat and drink. The basic tail flick incubation period (3-5 seconds) was determined prior to administration, and mice that were too sensitive or dull were discarded. […]

`C[C@@H](NC(=O)[C@@H](N)Cc1ccc(O)cc1)C(=O)NCC(=O)N(C)[C@@H](Cc1ccccc1)C(=O)NCC(=O)N1CCC[C@H]1C(=O)N[C@@H](CCC(N)=O)C(=O)N[C@@H](CCCNC(=N)N)C(=O)N[C@@H](Cc1ccccc1)C(N)=O` [Compound 9, Tyr-D-Ala-Gly-NMe-Phe-Gly-Pro-Gln-Arg-Phe-NH2] (H-Y[dA]G[NMeF]GPQRF-NH2) was tested, and the “effect on movement coordination” value [1] was “did not significantly affect movement coordination”, the “total distance of movement” value [2] was 71.39 m and the “analgesic ED50 value, thermal hyperalgesia” value ([3]; intrathecal) was 1.74 (1.38-2.20) pmol. For the same molecule, the “analgesic ED50 value, mechanical hyperalgesia” value ([3]; subcutaneous) was 3.51 (3.28-3.74) mg/kg, the “analgesic ED50 value, thermal hyperalgesia” value ([3]; subcutaneous) was 3.12 (2.77-3.51) mg/kg and the “analgesia ED50 value” ([4]; abdominal (intraperitoneal)) was 26.58 mg/kg. The “analgesic potency relative to BN-9” value ([4]; intrathecal) was 218 times, the “analgesic ED50 value” ([4]; intrathecal administration) was 1.33 pmol and the “maximum analgesic MPE value” ([4]; intrathecal, 5 pmol) was 94.7%. For the same molecule, the “analgesic ED50 value” ([4]; lateral ventricle administration) was 16.3 pmol, the “ED50 value (nmol) (95% confidence interval), analgesic activity” value ([4]; lateral ventricle injection) was 0.0163 (0.0145 to 0.0182) nmol and the “analgesic potency relative to BN-9” value ([4]; lateral ventricle, from ED50 values) was 23.9 times. For the same molecule, the “analgesia ED50 value” ([4]; subcutaneous) was 0.2279 mg/kg.
